Measurements published in US10877035B2, “Advanced drug development and manufacturing” (ICAGEN, LLC, priority 2006, dated 2020).

Legend:
COX-1 = target: T1, COX-1 (Canis lupus familiaris, UniProt Q8HZR1); details: cited from earlier work
T1 sequence (Q8HZR1 28-603): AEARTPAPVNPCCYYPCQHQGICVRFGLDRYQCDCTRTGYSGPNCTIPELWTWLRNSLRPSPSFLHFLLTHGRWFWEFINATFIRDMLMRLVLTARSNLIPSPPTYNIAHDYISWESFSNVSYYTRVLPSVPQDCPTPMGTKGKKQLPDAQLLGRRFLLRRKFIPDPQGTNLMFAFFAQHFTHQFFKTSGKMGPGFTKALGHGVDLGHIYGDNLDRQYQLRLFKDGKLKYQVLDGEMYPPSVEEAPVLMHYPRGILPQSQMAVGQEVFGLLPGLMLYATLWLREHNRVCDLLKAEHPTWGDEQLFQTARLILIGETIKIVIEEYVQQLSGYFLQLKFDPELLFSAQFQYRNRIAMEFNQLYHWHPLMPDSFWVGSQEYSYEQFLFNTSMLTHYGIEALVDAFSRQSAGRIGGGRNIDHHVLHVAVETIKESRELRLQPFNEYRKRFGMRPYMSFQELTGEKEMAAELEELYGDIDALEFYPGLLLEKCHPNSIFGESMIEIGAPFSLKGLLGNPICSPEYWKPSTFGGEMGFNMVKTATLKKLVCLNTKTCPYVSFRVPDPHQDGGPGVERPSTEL

COX-2 = target: T2, COX-2 (Canis lupus familiaris, UniProt Q8SPQ9); details: canine, relative to COX-1 column; cited from earlier work
T2 sequence (Q8SPQ9 18-604): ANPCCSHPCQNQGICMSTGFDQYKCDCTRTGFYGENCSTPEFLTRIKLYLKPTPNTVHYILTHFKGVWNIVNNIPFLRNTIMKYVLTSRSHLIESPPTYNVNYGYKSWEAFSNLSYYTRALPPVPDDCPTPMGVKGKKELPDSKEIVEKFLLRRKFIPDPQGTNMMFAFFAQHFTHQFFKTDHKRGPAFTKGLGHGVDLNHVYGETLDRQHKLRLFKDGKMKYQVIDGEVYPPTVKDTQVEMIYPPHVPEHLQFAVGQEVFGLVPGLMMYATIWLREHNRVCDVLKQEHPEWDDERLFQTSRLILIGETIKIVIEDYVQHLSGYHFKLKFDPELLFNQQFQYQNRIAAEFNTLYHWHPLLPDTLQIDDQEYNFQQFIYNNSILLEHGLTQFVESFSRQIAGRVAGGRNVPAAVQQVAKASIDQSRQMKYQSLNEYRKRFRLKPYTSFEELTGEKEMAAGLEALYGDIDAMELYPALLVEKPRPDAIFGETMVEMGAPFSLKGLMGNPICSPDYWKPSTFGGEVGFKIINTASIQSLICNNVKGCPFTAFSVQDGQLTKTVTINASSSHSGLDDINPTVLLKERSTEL

tetrameric avidin [1] = target: T3, tetrameric avidin (Gallus gallus, UniProt P02701); experiment: RPM (x-ray fluorescence) measurement of sulfur in avidin-biotin complex versus avidin; format: binding; details: 500 micrograms avidin, 0.20 millimolar biotin, pH 8.0, after ultrafiltration
T3 construct: purchased Sigma-Aldrich
T3 sequence (P02701 25-152): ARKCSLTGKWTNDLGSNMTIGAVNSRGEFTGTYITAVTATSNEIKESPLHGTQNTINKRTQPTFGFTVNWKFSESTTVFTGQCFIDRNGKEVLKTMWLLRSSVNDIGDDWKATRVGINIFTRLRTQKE
Description: Previous studies have shown that the ratio of sulfur in avidin-biotin:avidin is 19.5:16, or 1.22, see Green N. Mex. Purification of Avidin. Meth Enzymol. 1970, XVIII(A):414-417. […] We treated an avidin control sample identically. We used RPM to measure the sulfur content of the avidin-biotin complex and the avidin. We confirmed that the amount of avidin in each sample was identical using bicinchoninic acid protein assay kit (Pierce). As predicted, the avidin-biotin complex contained 1.2 times the sulfur than the avidin alone as measured by RPM.

tetrameric avidin [2] = target: T3, tetrameric avidin; details: previous studies; cited from earlier work
avidin = avidin (Gallus gallus, UniProt P02701); details: 200 micrograms avidin and 0.20 millimolar LPA, same filtering
avidin, sequence (P02701 25-152): as above
Procedure: […] We diluted this sample to 0.75 ml in TRIS buffer (pH 8.0), centrifuged for 2 hours at 7000 g, and repeated this process twice.

CC(C(=O)O)c1cccc(C(=O)c2ccccc2)c1 (stereo not drawn) [Ketoprofen]
selectivity in favor of COX-1 versus COX-2 (COX-1; according to TABLE 3): 1 to 0.6 | selectivity data, COX-1 (COX-1; canine, relative to COX-2 column): 1 | selectivity data, COX-2 (COX-2): .6

O=C(O)CCCC[C@@H]1SC[C@@H]2NC(=O)N[C@@H]21 [biotin]
sulfur in avidin-biotin complex relative to avidin alone as measured by RPM (tetrameric avidin [1]): 1.2 times | ratio of sulfur in avidin-biotin:avidin (tetrameric avidin [2]): 1.22

leucine phosphonic acid [LPA]
phosphorus observed in control samples (avidin): no phosphorus was observed
